From patent US12042481B2, “Use of (1R,5S)-(+)-1-(naphthalen-2-yl)-3-azabicyclo[3.1.0]hexane in the treatment of conditions affected by monoamine neurotransmitters” (priority 2011, dated 2024)

Experiments:
[1] = test system: 6-OHDA-lesioned juvenile rats; assay: Locomotor activity of juvenile rats with neonatal 6-OHDA lesions (model of ADHD); assay type: in vivo, rat
Method: The behavioral effects of (1R,5S)-(+)-1-(naphthalen-2-yl)-3-azabicyclo[3.1.0]hexane were evaluated in a model of ADHD, which can be simulated in juvenile rates with neonatal 6-hydroxydopamine (6-OHDA) lesions (Davids et al., 2003). In this animal model, the NE neurons are protected from the neurotoxic effects of 6-OHDA by pretreatment with the NE transporter inhibitor desipramine, so the NE system is largely intact and can respond to NE transporter inhibitors (Davids et al., 2002). Furthermore, the 6-OHDA lesions produce learning and memory deficits in learning models including the T maze, and active and passive avoidance tasks (Shaywitz et al., 1978; Wool et al., 1987; Takasuna and Iwasaki, 1996). Performance in these learning and memory models was improved by administration of stimulants (Shaywitz et al., 1978; Wool et al., 1987). Thus, this model incorporates both hyperactivity and learning deficits found in ADHD.
(§1) Methods of lesioning neonatal rats with 6-OHDA were carried out as detailed in Zhang et al. (2001). Briefly, on postnatal day 1 (PD 1), male Sprague-Dawley rat pups were randomly assigned to a nursing dam (10/dam). On PD 5, pups receive a subcutaneous injection of 25 mg/kg desipramine hydrochloride to protect noradrenergic neurons, followed in 45 min. by randomly assigned intracisternal injection of vehicle or 6-OHDA hydrobromide (100 μg free base) under hypothermic anesthesia. Pups were returned to nursing dams immediately after the intracranial injections. Locomotor activity was monitored individually for 90 min. in the periadolescent period on PD 25, using a microcomputer controlled infrared photobeam activity monitoring system. Locomotor activity was defined as breaking of consecutive photobeams and the activity accumulated in 5 minute bins. Behavioral testing was conducted in a novel environment (transparent plastic cages containing fresh bedding) within a grid of horizontal infrared beams. Each dose of (1R,5S)-(+)-1-(naphthalen-2-yl)-3-azabicyclo[3.1.0]hexane (1, 3 and 10 mg/kg) or methylphenidate (3 mg/kg) was dissolved in saline and given i.p. immediately prior to testing. The effects of sham versus 6-OHDA lesions on dopamine neurons in rats were quantified as decrements of DA transporters labeled with [31-1]2-(3-carbomethoxy-3-β-[4′-iodophenyl]tropane ([^3H]β-CIT), a selective DA transporter radioligand (Kula et al. 1999). Sections were preincubated (60 min., room temp [RT]) in 50 mM Tris-HCl buffer (pH 7.7) containing 120 mM NaCl and 4 mM MgCl2, then in fresh buffer (60 min) containing 2 nM [3H](3-CIT. Nonspecific binding was defined with 1 μM GBR-12909. Slides were then washed (2×5 min) in ice-cold buffer, dipped in ice-cold water, and air-dried. Radiolabeled slides and calibrated [^3H]standards were exposed to [^3H]sensitive films for 10-14 d at 4° C. Tritium-sensitive Hyperfilms were developed and fixed in Kodak D-19 for 5 min. at RT. Images were quantified with a computer-controlled MCID image analyzer. Brain regions of interest were outlined and their optical density was measured with two sections representing total binding, with two samples representing nonspecific binding. Optical density of sampled regions was measured and the amount of ligand bound within each area was calculated as nCi/mg tissue. Mean values of non-specific binding in each region were subtracted from the mean total binding to determine specific binding, which was converted into fmol/mg of radioligand bound.

dopamine transporters = assay: Autoradiographic binding of [3H]β-CIT to dopamine transporters in juvenile rat brain after neonatal 6-OHDA lesioning; assay type: in vivo; conditions: for specific binding of [3H]β-CIT to dopamine transporters, 6-OHDA Lesioned: mean ± SEM
Method: as §1

With `NCCc1cc(O)c(O)cc1O` [6-OHDA, 6-hydroxydopamine] the cumulative locomotor score ([1]; 6-OHDA-lesioned rats, PD 25, 90 minute testing period) was 2758±3.0, the “fold difference of cumulative locomotor score versus sham-lesioned rats” value ([1]; PD 25, 90 minute testing period, p<0.001) was 9 fold and the “% Sham Lesion, binding of [3H]β-CIT” value (dopamine transporters; lateral caudate-putamen) was 25.7%. For the same compound, the “specific binding of [3H]β-CIT to dopamine transporters, 6-OHDA Lesioned” value (“specific binding of [3H]β-CIT” below) (dopamine transporters; lateral caudate-putamen) was 30.9 ± 2.4 fmol/mg tissue, the “% Sham Lesion, binding of [3H]β-CIT” value (dopamine transporters; medial caudate-putamen) was 22.2% and the “specific binding of [3H]β-CIT” value (dopamine transporters; medial caudate-putamen) was 24.9 ± 3.5 fmol/mg tissue. The “% Sham Lesion, binding of [3H]β-CIT” value (dopamine transporters; nucleus accumbens septi) was 32.2% and the “specific binding of [3H]β-CIT” value (dopamine transporters; nucleus accumbens septi) was 22.8 ± 1.8 fmol/mg tissue.
`COC(=O)C(c1ccccc1)C1CCCCN1` (stereo not shown) [methylphenidate, reference compound] was tested, and the “locomotor activity (FIGS. 7A and 7B)” value ([1]; 6-OHDA-lesioned juvenile rats at PD25, p<0.05 versus vehicle) was “reduced locomotor activity” and the “time over which locomotor activity was significantly attenuated” value ([1]; methylphenidate 3 mg/kg i.p., PD 25, 90 min test) was 90 min.
